Experimental findings from patent US20230345940A1, “INSECTICIDE” (Western Sydney University, priority 2020, published 2023) are described below.

“And” between values parts separate entries of the source, which are not always exact repeats. Equal entries are not always repeated. Where two headings read alike, the source gives them in different places.

Holding throughout (type): in vivo
For data set [1], the system named is neonate Helicoverpa armigera. The data set can be described thus: Potter spray tower bioassay on leaf discs, Helicoverpa neonates. The following applies: 1.0% w/v; for mortality at 1 % strength: Helicoverpa armigera, foliar. An excerpt: Helicoverpa armigera (Hubner) (Lepidoptera: Noctuidae), commonly known as the cotton bollworm or as heliothis, is a widespread species, with an extensive host range (see, e.g., https://www.cabi.org/isc/datasheet/26757). It typically feeds selectively on high protein plant parts, such as flowers, buds and fruits. Helicoverpa armigera was obtained as fresh eggs from AgBiTech Pty. Ltd, Glenvale QLD, Australia, or CSIRO Agriculture and Food, Cotton Research Institute, Myall Vale NSW, Australia.
Eggs (50-75) were transferred with a fine camel hair brush onto 90 mm Whatman No. 1 filter paper partially moistened with distilled water and thin slices from the artificial medium supplied by AgBiTech were placed on the filter paper as a source of food for the hatching caterpillars. The eggs were left to hatch under laboratory conditions of 25±3° C. and 65±10% RH. Hatching occurred within 24 h and bioassays were carried out on neonate larvae with an average weight of […].
For Helicoverpa, neonate larvae 4-12 h after hatching were transferred individually to a cotton plant leaf disc (35 mm diameter) mounted with its lower side uppermost on 1% agar in an Easy Grip Tissue Culture Dish dimensions 35×10 mm (Corning Incorporated, Corning NY, USA). […] Thus, each replicate comprised 4 neonates.
Following spraying, the small dishes were covered with a perforated plastic sheet and then placed in plastic insect cages previously described for aphid bioassays. The number of dishes sprayed per sample was 4-10. Dishes were retained under laboratory conditions (24±2° C., 50±15% RH) for post-treatment observations. Mortality counts were conducted at 24 and 48 HAT. Absence of the caterpillar movement when prodded with a fine brush was taken as the criterion of death.
(§1) For each batch of investigations, control treatments were conducted, with methodology identical to other treatments. The control treatment solutions comprised 3 mL aliquots of 200 ppm Triton X-100 in distilled water and acetone or hexane at the same concentration as the test solutions. Investigations were discarded if control mortality exceeded 15%. Treatment mortality was calculated and is presented as corrected mortality, to account for any control mortality (Abbott WS., A method of computing the effectiveness of an insecticide. Journal of Economic Entomology, 18, 265-267, 1925).

Data set [2] relates to cotton aphid, Aphis gossypii. The data set can be described thus: Potter spray tower bioassay on leaf discs, cotton aphid. The following applies: 1.0% w/v.
Method: Aphis gossypii (susceptible strain) (Hemiptera: Aphididae), was established as a culture from material supplied by Dr Grant Herron, NSW Department of Primary Industries, Menangle NSW, Australia. Aphids were reared on potted Gossypium hirsutum L. (Malvaceae) grown from non-insecticide-treated conventional cotton seed, supplied by Dr Robert Mensah, NSW Department of Primary Industries, Narrabri NSW, Australia. The culture was maintained in a temperature-controlled greenhouse chamber set at 27±3° C. and 55±10% RH (relative humidity) and natural light. Only young adult females were selected for bioassay.
For the cotton aphid, parthenogenetic adult female aphids were collected from the cultures on cotton plants. Fifteen adults were transferred using a fine camel hair brush onto the lower side of a respective leaf disc 50 mm diameter mounted on 1.0% w/v agar in a plastic insect cage measuring 50 mm diameter×15 mm height plastic insect breeding 50 mm diameter×15 height (SPL Life Sciences, Korea).
Aliquots (3 mL) of the 1% w/v extracts were applied with a Potter Spray Tower for each treatment, as described above, and the spray was allowed to partially dry before the cage was covered with its lid and the sides of the cage sealed with Parafilm M®.
Dishes were retained under laboratory conditions (24±2° C., 50±15% RH) for post-treatment observations. […]
In data set [3] the test system is two-spotted spider mite (TSM), Tetranychus urticae Koch. Description: Potter spray tower bioassay on leaf discs, two-spotted spider mite. The note with it: 1.0% w/v; for mortality at 1 % strength: Tetranychus urticae, foliar.
Source text: Tetranychus urticae Koch, (Acari: Tetranychidae), commonly known as two-spotted spider mite is a cosmopolitan, phytophagous species, and an important agricultural pest in many temperate and sub-tropical countries. It is highly polyphagous, and feeds primarily on plant foliage. Tetranychus urticae Koch UWS 1 (organophosphate-susceptible) strain, originally obtained from Dr Grant Herron, NSW
Department of Primary Industries, Menangle NSW, Australia, but had been maintained at WSU Hawkesbury campus for approximately 18 years. They were reared on potted French beans, Phaseolus vulgaris var Redland Pioneer (in a constant temperature room maintained at 25±2° C., 65±5% RH and 14 h D: L photoperiod. The culture was reared on potted dwarf French bean (Phaseolus vulgaris L. var. Redland Pioneer) plants grown in a composted pinebark-based potting medium in a large (7.0 m (1)×6.0 m (w)×4.0 m (h)), pesticide-free, constant temperature room (28-30° C., 50% RH, 18:6, D:L). Only young gravid female two-spotted mites were selected for bioassay.
For the two-spotted spider mite, screening of each sample was conducted on 20-40 adult female mites, which were evenly distributed on 1-3 French bean leaf discs (25 mm diam.) contained in 90 mm diameter Petri dishes. The leaf discs were placed with their underside uppermost on moist absorbent cotton wool. Water was added to the dishes daily to prevent desiccation of the leaf discs and preventing the mites from escaping the leaf disc.
A 3.0 mL aliquot was applied to each Petri dish with a Potter precision spray tower as described by Herron et al., Potter spray tower bioassay of selected citrus pests to petroleum spray oil, Journal of the Australian Entomological Society 34, 253-263, 1995.
The average weight of the solution sprayed on each dish was calculated to be 5.385 mg/cm^2 or 0.05385 mg/cm^2 active ingredient (a.i.). Dishes were retained under laboratory conditions (24±2° C., 50±15% RH) for post-treatment observations. Mortality was recorded 24 h and 48 h after treatment (HAT). Death was recognised by the absence of movement when the test organisms were mechanically stimulated by prodding with a brush.
as §1

Data set [4] relates to Aphis gossypii adults and nymphs. The data set can be described thus: Field trial on cotton crop. The following applies: extract at 1.0%, clothianidin at 125 mL/ha. The protocol:
A trial was conducted on an irrigated commercial Bollgard II cotton crops (Sicot 74 variety) at the Australian Cotton Research Institute (ACM) in Narrabri NSW, Australia. The cotton crop used for the study comprised mature plants close to cut-out and were contaminated with Aphis gossypii from infested leaves collected from a nearby commercial cotton field at Yarral, Narrabri NSW, Australia.
[…] Each replicated plot measured 2 m (2 rows) wide and 1 m long with 2 m (rows) buffer between replicated plots. Three plants in each treatment replicate with terminals infested with aphids were randomly selected and terminals tagged for pre- and post-treatment assessments.
The control was sprayed with 100 ppm Triton-X 100 in water only.
Foliar application of each treatment was performed, applying the control first, then the plant extract, and finally the industry standard. Each treatment was applied to run-off using a small hand-held pressure sprayer fitted with flat fan nozzles delivering a droplet size of 200 μm (equivalent to field application of 100 L/ha). The decision to apply the treatment was made based on the IPM Guidelines and CottonLogic recommended economic threshold of 50% of plant terminals infested.
The number of A. gossypii and beneficial species (mainly predatory insects) were assessed by visually counting A. gossypii adults and nymphs and beneficials on the upper and undersides of leaves from the 3-4 nodes below the tagged plant terminals. Pre-treatment counts were made 24 h before treatment and post treatment counts on 1, 2, 5, 6, 7, 8, 9, 12 and 14 days after treatment (DAT).
The data for both A. gossypii adults and nymphs as well as predatory insects were each initially expressed as numbers per terminal. Data were calculated as percentage reduction of population compared to the pre-treatment count.
Means of data on population reduction were compared using one-way ANOVA, after confirming normality, using SPSS v21. Significance was normally set at 5% (α=0.05), and when there was significance, means were separated using Duncan's Multiple range test.

For “10′-oxo-8-methyl podopyrone [Fraction 44]”, in data set [1], the “Corrected percentage mortality Helicoverpa 24 HAT” value worked out at 100.0% and the “Corrected percentage mortality Helicoverpa 48 HAT” value came to 100.0%. Further, in data set [2], the “Corrected percentage mortality Cotton aphid 24 HAT” value is reported as 100.0%. Besides, in data set [3], the “Corrected percentage mortality TSM 24 HAT” value was 100.0% and the “Corrected percentage mortality TSM 48 HAT” value is 100.0%.
On to `CN/C(=N\[N+](=O)[O-])NCc1cnc(Cl)s1` [Clothianidin], for which, in data set [4] (mean of plots 1-4), the “% Reduction from pre-treatment count, Mean of plots, 1 DAT” value is 54.65%; the “% Reduction from pre-treatment count, Mean of plots, 2 DAT” value worked out at 77.18%; the “% Reduction from pre-treatment count, Mean of plots, 5 DAT” value is on record as 85.08a, b %; the “% Reduction from pre-treatment count, Mean of plots, 6 DAT” value is listed as 84.83%. Besides, in data set [4] (mean of plots 1-4), the “% Reduction from pre-treatment count, Mean of plots, 7 DAT” value was 77.88% and the “% Reduction from pre-treatment count, Mean of plots, 14 DAT” value worked out at 82.08%. Also, in data set [4] (per plot, single spray), the “% Reduction from pre-treatment count (mean of 3 plants), 2 DAT” value was 55.1% and 92.9% and 64.4% and 96.3%; the “% Reduction from pre-treatment count (mean of 3 plants), 5 DAT” value was 75.0% and 78.6% and 97.8% and 88.9%; the “% Reduction from pre-treatment count (mean of 3 plants), 6 DAT” value is 84.6% and 64.3% and 97.8% and 92.6%; the “% Reduction from pre-treatment count (mean of 3 plants), 14 DAT” value is 97.8% and 78.6% and 77.8% and 74.1%.
Consider `CCc1c(OC)oc(CCCCCCCCCC(C)=O)c(C)c1=O` [Fraction 42, 10′-oxopodopyrone], for which the mortality at 1 % strength is 0% in data set [1] (read-out: Corrected percentage mortality Helicoverpa 24 HAT), 0% in data set [1] (read-out: Corrected percentage mortality Helicoverpa 48 HAT), 100% in data set [3] (read-out: Corrected percentage mortality TSM 24 HAT) and 100% in data set [3] (read-out: Corrected percentage mortality TSM 48 HAT).

Broadly, the mortality is the share of the test organisms that died.
